Read-outs that look alike come from different tables or passages of the source.
What was measured:
[1] = tested on: HepG2 cells; assay: CCK8 cell viability assay; assay type: cell-based; details: Homo sapiens, 24 h, equivalent tanshinone IIA dose
Protocol: (§1) A2780, HCT8, HepG2, and Huh7 cells were seeded in 96-well plates at a density of 4 × 10^4 cells per well for 24 h ([32]) and treated with complete medium containing a series of blank niosomes (NSVs, Gal-NSVs, pH-NSVs, Gal-pH-NSVs) for 24 h. Subsequently, the culture medium was discarded, and CCK8 solution was added to the cells. Then, cells were continuously cultured for 2 h at 37°C. The absorbance value of each well was measured at 450 nm by a microplate spectrophotometer (BIO-RAD xMark, USA). The control group and blank group were included in the experiment. […] Cell viability was calculated according to the following formula ([33]): Cell viability%=Atest−Ao/Acontrast−Ao×100%
(§2) In the formula, Atest is the absorbance value of the test group, Acontrast is the absorbance value of the control group, and A0 is the absorbance value of the blank group.
(§3) A2780, HCT8, HepG2, and Huh7 cells were seeded in 96-well plates for 24 h and treated with serial concentrations of tanshinone IIA solution (Free TanIIA) and tanshinone IIA-loaded niosomes (TanIIA-NSVs, Gal-TanIIA-NSVs, pH-TanIIA-NSVs, Gal-pH-TanIIA-NSVs) at an equivalent tanshinone IIA dose for 24 h. Then, the culture medium was discarded, CCK8 solution was added to the cells, and cells were continuously cultured for 2 h at 37°C. The absorbance value of each well was measured at 450 nm by a microplate spectrophotometer ([33]).

[2] = tested on: HCT8 cells; assay: CCK8 cell viability assay; assay type: cell-based; details: Homo sapiens, HCT-8, 24 h, equivalent tanshinone IIA dose
Protocol: as §1, §2, §3

[3] = tested on: A2780 cells; assay: CCK8 cell viability assay; assay type: cell-based; details: Homo sapiens, 24 h, equivalent tanshinone IIA dose
Protocol: as §1, §2, §3

[4] = tested on: Huh7 cells; assay: CCK8 cell viability assay; assay type: cell-based; details: Homo sapiens, Huh-7, 24 h, equivalent tanshinone IIA dose
Protocol: as §1, §2, §3

[5] = design: method as in PMID 28680091; details: cited from earlier work
[6] = Pharmacokinetics after tail vein injection; assay type: in vivo; details: SD rats
Protocol: Twelve male SD rats (weighing 200–250 g) were randomly divided into three groups. Rats were fasted for 12 h but drank water freely before administration ([38]). The first, second, and third groups were injected with Free TanIIA, TanIIA-NSVs, and Gal-pH-TanIIA-NSVs at an equivalent tanshinone IIA dose of 10 mg/kg via tail vein, respectively. Orbital blood was taken at 0.083, 0.25, 0.5, 1, 2, 4, 6, 8, 12, and 24 h after administration. Blood was transferred to a centrifuge tube coated with heparin sodium and centrifuged at 9391.2×g for 5 min to prepare plasma that was stored at −20°C ([39]).
After treatment of plasma and tissue homogenate, the obtained supernatant was concentrated by nitrogen blowing and determined by HPLC.

[7] = design: method as in PMID 28680091; details: cited from earlier work; remark: listed apart in the source
[8] = Biodistribution after tail vein injection; assay type: in vivo; details: SD rats, 10 mg/kg, all time periods tested (0.083, 4, 12 h)
Protocol: Twenty-seven male SD rats were randomly divided into three groups and administered in the same way. Rats were sacrificed after 0.083, 4, and 12 h, respectively, and heart, liver, spleen, lung, and kidney tissues were collected immediately. Any residual blood on the tissue was washed with precooled normal saline, and the washed tissue was blotted up with filter paper and weighed. The tissue was then homogenized in 5 times the mass of precooled normal saline. Homogenized tissue samples were centrifuged at 9391.2×g for 5 min to separate the tissue homogenate and were stored at −20°C ([39]). After treatment of plasma and tissue homogenate, the obtained supernatant was concentrated by nitrogen blowing and determined by HPLC.

[9] = tested on: HepG2 cells; assay: Cell apoptosis by flow cytometry (Annexin V-FITC/PI); assay type: cell-based; details: 5 μg/mL tanshinone IIA equivalent, 24 h, control 57.33%
Protocol: HepG2 cells were seeded in 6-well plates at a density of 2 × 10^5 cells per well for 24 h and treated with tanshinone IIA solution (Free TanIIA) and tanshinone IIA-loaded niosomes (TanIIA-NSVs, Gal-pH-TanIIA-NSVs) at an equivalent tanshinone IIA dose of 5 μg/mL for 24 h. Another group was treated with PBS for the same duration as the control group. After incubation, the cell culture medium was transferred to a 2-mL centrifuge tube, and cells digested by a trypsin-EDTA solution were added to the cell culture medium collected previously. Subsequently, the cells were mixed, transferred to a centrifuge tube, and centrifuged at 1000×g for 5 min ([34]). The supernatant was discarded, and the cells were gently resuspended with PBS and counted. A certain amount of resuspended cells were centrifuged in a similar fashion, the supernatant was discarded (PBS was removed), and 500 μL of binding buffer was added. Then, the cells were gently resuspended, and 5 μL Annexin V-FITC was added. After mixing, 5 μL propidium iodide (PI) staining solution was added to the cells, gently mixed, and incubated for 10 min in the dark at room temperature (20–25°C). Flow cytometry was then performed ([35]).

[10] = tested on: HepG2 cells; assay: Cell cycle by flow cytometry (PI); assay type: cell-based; details: 5 μg/mL tanshinone IIA equivalent, 24 h, control 28.98%
Protocol: The test method was performed according to the method provided with the apoptosis test until two centrifugations were completed, and the supernatant was discarded. Next, 1 mL of ice bath precooled 70% ethanol was added to fix the cells for 24 h at 4°C, then, the fixed cells were centrifuged at 1000×g for 5 min ([36]). After resuspending the cells, the cells were centrifuged and precipitated again, and the supernatant was discarded. A total of 500 μL PI staining solution was added to the cells, and the cells were slowly and sufficiently resuspended and bathed for 30 min in the dark at 37°C. Flow cytometry was completed within 24 h after staining ([37]).

[11] = 10 mg/kg tanshinone IIA equivalent, tail vein

Cc1coc2c1C(=O)C(=O)c1c-2ccc2c1CCCC2(C)C [Free TanIIA, Tanshinone IIA]
IC50 [1]: 2.26 µg/mL | IC50 [2]: 2.42 µg/mL | IC50 [3]: 2.44 µg/mL | IC50 [4]: 2.5 µg/mL | Solubility in water [5]: insolubility in water | Plasma concentration by HPLC ([6]; 12 h after injection, 10 mg/kg): could not be detected | AUC0–t [6, 11]: 7.70 ± 1.51 (μg/mL)·h | AUC0–∞ [6, 11]: 8.81 ± 1.65 (μg/mL)·h | CL [6, 11]: 0.284 ± 0.026 (mg)/(μg/mL)/h | Vd [6, 11]: 1.26 ± 0.09 (mg)/(μg/mL) | half-life ([6]; male, rat, plasma, iv, 10 mg/kg tanshinone IIA equivalent, tail vein): 3.09 ± 0.59 h | MRT last ([6]; male, rat, plasma, iv, 10 mg/kg tanshinone IIA equivalent, tail vein, read-out: MRT0–t): 2.23 ± 0.2 h | MRT inf ([6]; male, rat, plasma, iv, 10 mg/kg tanshinone IIA equivalent, tail vein, read-out: MRT0–∞): 3.53 ± 0.63 h | half-life [7]: short half-life | Drug level in kidney tissue [8]: relatively high drug levels | Apoptotic rate (early + late apoptosis) [9]: 78.34% | S phase distribution [10]: 50.53%
